The target in one experiment is T1, Protein RecA (Mycobacterium tuberculosis, UniProt P9WHJ3).
T1 sequence (P9WHJ3 whole entry): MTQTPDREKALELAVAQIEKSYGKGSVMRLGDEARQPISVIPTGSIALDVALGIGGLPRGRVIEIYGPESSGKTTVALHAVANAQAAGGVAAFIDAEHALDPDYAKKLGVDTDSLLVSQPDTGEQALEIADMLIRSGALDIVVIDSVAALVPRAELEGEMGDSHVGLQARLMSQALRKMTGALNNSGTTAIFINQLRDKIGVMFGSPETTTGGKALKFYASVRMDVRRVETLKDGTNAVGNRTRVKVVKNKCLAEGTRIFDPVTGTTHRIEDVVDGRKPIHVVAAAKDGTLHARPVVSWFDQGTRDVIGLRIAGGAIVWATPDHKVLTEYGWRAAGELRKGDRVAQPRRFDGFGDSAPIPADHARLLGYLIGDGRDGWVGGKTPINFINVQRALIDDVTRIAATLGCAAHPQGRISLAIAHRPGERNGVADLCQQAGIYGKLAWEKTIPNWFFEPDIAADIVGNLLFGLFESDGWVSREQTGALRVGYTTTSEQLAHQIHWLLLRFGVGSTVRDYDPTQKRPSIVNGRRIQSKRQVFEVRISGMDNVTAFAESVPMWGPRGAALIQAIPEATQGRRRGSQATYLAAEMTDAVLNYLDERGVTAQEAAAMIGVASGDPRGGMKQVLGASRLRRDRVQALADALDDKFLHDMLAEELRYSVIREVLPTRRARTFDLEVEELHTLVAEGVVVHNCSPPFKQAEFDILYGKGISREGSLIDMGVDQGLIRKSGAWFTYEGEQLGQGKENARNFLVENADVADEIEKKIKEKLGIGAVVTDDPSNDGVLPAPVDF
The experiment can be described thus: Fluorescence Cell-Free Homogeneous Dose Retest to Identify Inhibitors of RecA-Intein Splicing Activity. [Related pubchem assays (depositor defined):AID2097, AID2223, AID489010, AID492950]. It counts as functional.

For experiment [1], the target named is Potassium voltage-gated channel subfamily KQT member 2 (Rattus norvegicus, UniProt O88943, W236L). The experiment can be described thus: KCNQ2 channel potentiators, dose response, mechanism study for KCNQ2 potentiator project, cell-based, automated electrophysiology (AID 2603). It counts as functional.
Another experiment concerns Vero. As to the kind of experiment: Vero cell cytotoxicity, cytotoxicity control for flavivirus capping enzyme inhibitors (AID 588742). It counts as functional. The conditions noted are these: Chlorocebus sabaeus.
Experiment [2] in a line: control 3'UTR Renilla luciferase suppression, dose response, counter-screen for Shn3 inhibitor project, cell-based, Clone20-Shn3RL, cherry-picked (AID 624133). It is filed as functional.
The next experiment concerns the target Genome polyprotein (dengue virus type 2, UniProt P29990). As to the kind of experiment: Dengue-2 NS5 methyltransferase inhibitors, primary screen, biochemical, confirmation dose response (AID 588689). It is filed as functional.
The nature of experiment [3]: HepG2 cell cytotoxicity, dose response, cytotoxicity control for Shn3 inhibitor project, CellTiter-Glo, cherry-picked (AID 624134). It is filed as functional, cell-based. For orientation: ATP-based viability assays read luminescence as a measure of living cells.
Experiment [4] concerns the target T2, Hepatocyte nuclear factor 4-alpha (Homo sapiens, UniProt P41235).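 Further: biochemical luminescence-based dose-response counterscreen measuring inhibition of HNF4 dimerization, run alongside a screen for blockers of ABHD5–perilipin-5 interaction; split luciferase complementation of HNF4 fusion proteins in cell lysate measuring dimerization.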
T2 sequence (P41235 whole entry): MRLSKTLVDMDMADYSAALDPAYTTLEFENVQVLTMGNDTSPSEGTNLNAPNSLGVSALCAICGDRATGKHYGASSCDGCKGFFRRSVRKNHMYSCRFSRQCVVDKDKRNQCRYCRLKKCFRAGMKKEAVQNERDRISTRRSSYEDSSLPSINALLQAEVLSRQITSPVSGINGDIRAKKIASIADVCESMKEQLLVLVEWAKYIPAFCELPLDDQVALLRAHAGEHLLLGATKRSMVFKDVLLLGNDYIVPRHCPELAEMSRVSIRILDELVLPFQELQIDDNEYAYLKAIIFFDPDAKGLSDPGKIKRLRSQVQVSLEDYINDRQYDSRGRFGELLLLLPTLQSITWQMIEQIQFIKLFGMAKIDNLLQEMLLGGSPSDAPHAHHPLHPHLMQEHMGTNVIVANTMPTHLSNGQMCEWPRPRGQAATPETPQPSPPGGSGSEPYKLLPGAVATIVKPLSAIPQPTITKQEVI
It is filed as functional, cell-based.

Experiment [5] can be described thus: Shn3 3'UTR reporter inhibitors, dose response, cell-based, Clone20 osteoblasts, firefly luciferase, cherry-picked (AID 624132).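 Further: firefly luciferase luminescence from reporter carrying the Shn3 3'UTR in osteoblasts.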 It is filed as functional.
The target in experiment [6] is T3, Replicative DNA helicase DnaB (Mycobacterium tuberculosis, UniProt P9WMR3).
T3 sequence (P9WMR3 whole entry): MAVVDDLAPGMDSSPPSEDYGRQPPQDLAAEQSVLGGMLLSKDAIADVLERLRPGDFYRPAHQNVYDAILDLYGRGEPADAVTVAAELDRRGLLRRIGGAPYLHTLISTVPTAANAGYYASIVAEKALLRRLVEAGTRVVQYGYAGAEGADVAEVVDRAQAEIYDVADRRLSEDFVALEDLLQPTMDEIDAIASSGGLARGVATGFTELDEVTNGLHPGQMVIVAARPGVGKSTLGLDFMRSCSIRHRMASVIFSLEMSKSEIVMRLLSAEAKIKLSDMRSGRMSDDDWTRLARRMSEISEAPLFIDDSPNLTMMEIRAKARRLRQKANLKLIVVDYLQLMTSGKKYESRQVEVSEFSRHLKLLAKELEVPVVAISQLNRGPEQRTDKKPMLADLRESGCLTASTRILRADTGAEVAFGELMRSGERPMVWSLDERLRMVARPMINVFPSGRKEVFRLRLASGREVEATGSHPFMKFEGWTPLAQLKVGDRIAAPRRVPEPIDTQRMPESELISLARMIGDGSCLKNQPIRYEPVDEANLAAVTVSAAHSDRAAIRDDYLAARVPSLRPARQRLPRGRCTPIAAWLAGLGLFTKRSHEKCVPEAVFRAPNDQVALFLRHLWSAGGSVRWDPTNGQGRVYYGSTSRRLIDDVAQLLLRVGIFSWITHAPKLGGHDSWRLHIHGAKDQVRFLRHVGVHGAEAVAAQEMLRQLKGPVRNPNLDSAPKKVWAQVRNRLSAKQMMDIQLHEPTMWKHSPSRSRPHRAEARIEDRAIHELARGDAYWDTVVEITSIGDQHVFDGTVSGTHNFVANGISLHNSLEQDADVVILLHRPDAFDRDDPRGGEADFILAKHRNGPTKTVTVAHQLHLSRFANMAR
The experiment can be described thus: DnaB intein splicing inhibitors, dose response, biochemical, cell-free fluorescence (AID 449749). It counts as functional.

Experiment [7] can be described thus: Luminescence Cell-Based Dose-Confimation HTS to Identify Inhibitors of 5'UTR Stem-Loop Driven Alpha-Synuclein mRNA Translation in H4 Neuroglioblastoma Cells. [Related pubchem assays: 1827 (Project Summary), 1813 (Primary HTS)]. It is filed as functional.
The nature of experiment [8]: inhibitors of Bluetongue virus cytopathic effect, confirmation, arbovirus, BSR cells (AID 1250).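 Further: protection from viral cytopathic effect measured as cell viability by ATP luminescence.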 It counts as functional.
The subject of the next experiment is H9c2. The experiment can be described thus: cells. It is filed as functional, cell-based. The conditions noted are these: Rattus norvegicus, H9c2, Myocardium.
The target of experiment [9] is T4, Neuropeptide Y receptor type 1 (Homo sapiens, UniProt P25929).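 Further: HEK293 cells with a CNG channel challenged with NPY then isoproterenol; potency as antagonist that reverses NPY suppression of cAMP signal.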
T4 sequence (P25929 whole entry): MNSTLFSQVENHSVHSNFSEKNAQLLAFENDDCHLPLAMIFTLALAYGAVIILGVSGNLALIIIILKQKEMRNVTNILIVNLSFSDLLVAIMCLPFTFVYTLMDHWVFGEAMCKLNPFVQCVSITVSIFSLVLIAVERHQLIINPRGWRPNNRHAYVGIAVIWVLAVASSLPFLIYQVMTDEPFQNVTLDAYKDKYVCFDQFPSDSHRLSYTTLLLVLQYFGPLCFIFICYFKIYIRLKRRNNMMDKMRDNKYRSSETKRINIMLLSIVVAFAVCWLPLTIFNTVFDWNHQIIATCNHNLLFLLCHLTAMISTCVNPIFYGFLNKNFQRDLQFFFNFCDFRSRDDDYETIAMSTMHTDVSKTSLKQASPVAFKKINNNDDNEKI
It counts as functional.

Experiment [10] addresses T5, Neuropeptide Y receptor type 2 (Homo sapiens, UniProt P49146).
T5 sequence (P49146 whole entry): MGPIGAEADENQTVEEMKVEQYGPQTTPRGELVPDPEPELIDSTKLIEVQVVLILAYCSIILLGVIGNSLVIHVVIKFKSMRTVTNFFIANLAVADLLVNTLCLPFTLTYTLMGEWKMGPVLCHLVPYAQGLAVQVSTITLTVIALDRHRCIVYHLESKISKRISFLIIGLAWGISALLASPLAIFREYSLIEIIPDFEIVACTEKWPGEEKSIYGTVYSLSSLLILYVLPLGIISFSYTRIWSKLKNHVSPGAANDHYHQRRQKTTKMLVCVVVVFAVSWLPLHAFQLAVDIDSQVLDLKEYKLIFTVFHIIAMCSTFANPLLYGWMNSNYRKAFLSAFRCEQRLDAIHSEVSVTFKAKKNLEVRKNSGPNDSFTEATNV
It counts as functional, cell-based.

Molecules are shown by their SMILES. Calls of active or inactive are those of the source.

Sequence of Potassium voltage-gated channel subfamily KQT member 2 (O88943 whole entry W236L): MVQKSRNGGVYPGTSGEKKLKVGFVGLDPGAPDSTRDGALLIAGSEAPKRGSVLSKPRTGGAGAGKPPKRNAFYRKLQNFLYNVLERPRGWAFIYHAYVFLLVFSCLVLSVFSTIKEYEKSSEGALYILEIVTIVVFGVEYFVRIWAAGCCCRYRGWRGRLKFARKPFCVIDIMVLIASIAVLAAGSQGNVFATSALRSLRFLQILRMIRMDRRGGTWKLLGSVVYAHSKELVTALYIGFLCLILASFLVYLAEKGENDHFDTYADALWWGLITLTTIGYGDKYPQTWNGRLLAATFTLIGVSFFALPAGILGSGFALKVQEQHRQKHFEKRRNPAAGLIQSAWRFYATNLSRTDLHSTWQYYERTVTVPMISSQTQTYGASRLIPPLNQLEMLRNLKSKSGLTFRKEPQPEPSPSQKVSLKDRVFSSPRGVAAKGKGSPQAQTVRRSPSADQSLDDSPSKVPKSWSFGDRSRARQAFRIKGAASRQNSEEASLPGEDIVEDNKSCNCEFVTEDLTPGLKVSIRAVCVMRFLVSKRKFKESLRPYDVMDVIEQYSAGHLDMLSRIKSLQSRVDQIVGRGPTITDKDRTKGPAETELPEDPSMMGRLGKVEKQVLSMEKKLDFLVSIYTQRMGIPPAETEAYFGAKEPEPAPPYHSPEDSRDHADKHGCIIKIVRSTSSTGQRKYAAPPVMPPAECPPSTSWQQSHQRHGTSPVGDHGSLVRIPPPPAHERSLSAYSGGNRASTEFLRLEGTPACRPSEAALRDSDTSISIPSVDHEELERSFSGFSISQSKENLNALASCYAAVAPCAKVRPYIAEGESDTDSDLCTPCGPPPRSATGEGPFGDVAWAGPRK
Sequence of Genome polyprotein (P29990 2492-3391 limits assumed): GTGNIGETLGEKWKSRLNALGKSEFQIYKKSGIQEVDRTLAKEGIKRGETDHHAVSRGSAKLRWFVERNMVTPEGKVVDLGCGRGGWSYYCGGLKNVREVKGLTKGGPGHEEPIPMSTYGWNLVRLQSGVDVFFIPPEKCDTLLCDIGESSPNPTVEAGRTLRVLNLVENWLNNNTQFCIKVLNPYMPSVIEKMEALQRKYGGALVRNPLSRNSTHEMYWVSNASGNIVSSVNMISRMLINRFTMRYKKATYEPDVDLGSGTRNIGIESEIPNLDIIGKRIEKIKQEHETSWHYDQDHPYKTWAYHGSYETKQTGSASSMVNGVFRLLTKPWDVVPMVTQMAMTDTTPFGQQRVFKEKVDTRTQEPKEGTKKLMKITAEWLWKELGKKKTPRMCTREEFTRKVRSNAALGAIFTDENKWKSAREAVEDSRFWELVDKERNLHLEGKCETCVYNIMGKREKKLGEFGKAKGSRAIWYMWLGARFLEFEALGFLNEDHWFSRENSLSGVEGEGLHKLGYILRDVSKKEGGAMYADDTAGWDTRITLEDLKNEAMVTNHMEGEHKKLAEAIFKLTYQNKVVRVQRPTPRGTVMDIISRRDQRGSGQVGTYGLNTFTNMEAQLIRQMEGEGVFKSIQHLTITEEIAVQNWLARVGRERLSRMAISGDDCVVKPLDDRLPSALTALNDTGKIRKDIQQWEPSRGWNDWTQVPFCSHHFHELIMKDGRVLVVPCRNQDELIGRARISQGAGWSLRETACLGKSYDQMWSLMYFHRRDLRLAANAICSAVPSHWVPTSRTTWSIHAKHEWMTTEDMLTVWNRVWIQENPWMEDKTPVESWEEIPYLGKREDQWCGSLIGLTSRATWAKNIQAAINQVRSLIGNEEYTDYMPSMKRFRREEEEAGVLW

One may read the EC50 as the concentration giving half of the maximal effect. As usually defined, the CC50 is the concentration that lowers cell viability or growth by half. In general, AC50 refers to the midpoint of the concentration-response curve, whichever way the signal moves. The IC50 is the concentration needed to halve the response being measured. Take `CSc1nnc(NC(=O)c2nc(S(=O)(=O)Cc3ccc(C)cc3)ncc2Cl)s1`: the half-maximal effective concentration (EC50) on Protein RecA was 3.26 µM (active); in experiment [1], 34.9 µM (active). Further, in the experiment on Vero, the CC50 was 30.9 µM (active). Moreover, the concentration at half-maximal activity (AC50) in experiment [2] was 11.1 µM (active); in experiment [3], > 70 µM (inactive); in experiment [5] it was 3.18 µM (active); in experiment [6], 5.31 µM (active). For the same compound, the concentration for half-maximal inhibition (IC50) at Genome polyprotein is 40.5 µM (active); in experiment [4] it was 4.93 µM (active).

Take `CN(C)c1nc(N)nc(CSc2nnnn2-c2ccc(Cl)cc2)n1`: the EC50 in [7] was > 100 µM (not active).

For the compound `COc1ccc(-c2nc(NC(=O)c3ccc(OCC(=O)N4CCOCC4)c(OC)c3)sc2C)cc1`, the IC50 in [8] is 83.5 µM (active); in the experiment on H9c2, > 79 µM (inactive).

Consider `O=C(N/N=C/c1ccco1)c1ccccc1OCc1ccc(Br)cc1`, for which the half-maximal inhibitory concentration (IC50) in experiment [9] was 5.34 µM (active); in experiment [10] it was 9.08 µM (active).

The values above are taken from ChEMBL document CHEMBL1201862, “PubChem BioAssay data set” (2004).
